Calls of active or inactive are those of the source. No cut-off for these calls is given here.
Legend:
PDE5 = PDE5 (Homo sapiens, UniProt O76074); assay: Inhibition of human platelet PDE5 using [3H]cGMP as substrate at 10 uM by Eurofins kinase assay relative to control; type: toxicity; conditions: human platelet PDE5, probe [3H]cGMP
Cytochrome P450 1A2 = Cytochrome P450 1A2 (Homo sapiens, UniProt P05177); assay: Inhibition of recombinant human CYP1A2 by Eurofins assay; type: ADME
Cytochrome P450 2D6 = Cytochrome P450 2D6 (Homo sapiens, UniProt P10635); assay: Inhibition of recombinant human CYP2D6 by Eurofins assay; type: ADME
[1] = target: 3',5'-cyclic-AMP phosphodiesterase 4B (Homo sapiens) (UniProt Q07343); assay: Inhibition of human PDE4B1 at 10 uM by Eurofins kinase assay relative to control
[2] = target: T1, 3',5'-cyclic-AMP phosphodiesterase 4D (Homo sapiens, UniProt Q08499); assay: Inhibition of human PDE4D2 by Eurofins kinase assay; type: toxicity
T1 sequence (Q08499 whole entry): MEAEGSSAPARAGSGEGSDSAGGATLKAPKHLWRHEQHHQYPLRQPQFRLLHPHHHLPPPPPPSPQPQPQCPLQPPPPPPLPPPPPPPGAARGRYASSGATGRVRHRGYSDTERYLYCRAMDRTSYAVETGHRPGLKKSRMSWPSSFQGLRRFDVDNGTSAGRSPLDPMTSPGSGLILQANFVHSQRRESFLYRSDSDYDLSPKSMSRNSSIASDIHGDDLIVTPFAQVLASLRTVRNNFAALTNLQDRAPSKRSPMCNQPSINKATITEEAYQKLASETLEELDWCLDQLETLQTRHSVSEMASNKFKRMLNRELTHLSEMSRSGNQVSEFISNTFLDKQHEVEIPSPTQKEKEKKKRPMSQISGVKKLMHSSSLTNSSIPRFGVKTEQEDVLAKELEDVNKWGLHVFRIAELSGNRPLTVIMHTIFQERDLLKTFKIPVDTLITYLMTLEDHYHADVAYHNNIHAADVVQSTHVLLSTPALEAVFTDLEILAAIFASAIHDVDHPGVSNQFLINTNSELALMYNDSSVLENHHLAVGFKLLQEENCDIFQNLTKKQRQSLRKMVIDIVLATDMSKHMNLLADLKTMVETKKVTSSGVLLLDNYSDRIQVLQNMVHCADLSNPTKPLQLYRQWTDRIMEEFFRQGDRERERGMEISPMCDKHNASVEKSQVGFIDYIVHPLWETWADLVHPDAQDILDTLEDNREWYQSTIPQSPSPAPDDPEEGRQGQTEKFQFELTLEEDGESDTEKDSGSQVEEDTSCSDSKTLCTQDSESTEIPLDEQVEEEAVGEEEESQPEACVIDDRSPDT

[3] = target: High affinity 3',5'-cyclic-AMP phosphodiesterase 7A (Homo sapiens) (UniProt Q13946); assay: Inhibition of human PDE7A1 at 10 uM by Eurofins kinase assay relative to control
[4] = target: High affinity cAMP-specific and IBMX-insensitive 3',5'-cyclic phosphodiesterase 8A (Homo sapiens) (UniProt O60658); assay: Inhibition of human PDE8A1 at 10 uM by Eurofins kinase assay relative to control
Sequence of High affinity cAMP-specific and IBMX-insensitive 3',5'-cyclic phosphodiesterase 8A (Homo sapiens) (O60658 whole entry): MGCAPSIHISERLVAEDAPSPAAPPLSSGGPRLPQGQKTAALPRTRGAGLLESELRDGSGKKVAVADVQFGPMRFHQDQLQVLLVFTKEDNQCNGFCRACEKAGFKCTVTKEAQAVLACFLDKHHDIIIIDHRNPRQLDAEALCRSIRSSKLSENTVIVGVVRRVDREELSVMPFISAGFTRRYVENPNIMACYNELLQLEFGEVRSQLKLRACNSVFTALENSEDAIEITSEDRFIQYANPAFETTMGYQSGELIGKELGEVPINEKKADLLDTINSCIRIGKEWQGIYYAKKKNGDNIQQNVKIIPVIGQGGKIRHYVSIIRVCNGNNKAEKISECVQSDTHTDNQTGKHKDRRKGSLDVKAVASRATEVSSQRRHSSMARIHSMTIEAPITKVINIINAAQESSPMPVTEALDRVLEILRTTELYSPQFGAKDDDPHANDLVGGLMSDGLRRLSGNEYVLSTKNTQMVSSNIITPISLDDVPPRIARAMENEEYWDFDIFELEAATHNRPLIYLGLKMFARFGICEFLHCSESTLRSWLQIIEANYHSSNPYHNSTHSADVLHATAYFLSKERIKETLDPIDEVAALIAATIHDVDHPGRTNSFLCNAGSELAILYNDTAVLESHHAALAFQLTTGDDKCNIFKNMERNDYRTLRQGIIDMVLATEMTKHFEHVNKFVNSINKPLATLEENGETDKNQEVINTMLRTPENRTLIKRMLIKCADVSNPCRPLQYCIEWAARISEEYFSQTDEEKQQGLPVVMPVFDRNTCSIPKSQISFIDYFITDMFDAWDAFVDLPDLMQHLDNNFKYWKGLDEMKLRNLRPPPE

Cytochrome P450 3A4 = Cytochrome P450 3A4 (Homo sapiens, UniProt P08684); assay: Inhibition of recombinant human CYP3A4 by Eurofins assay; type: ADME
Cytochrome P450 2B6 = Cytochrome P450 2B6 (Homo sapiens, UniProt P20813); assay: Inhibition of recombinant human CYP2B6 by Eurofins assay; type: ADME
[5] = Cytotoxicity against human HCT-8 cells assessed as inhibition of cell proliferation incubated for 48 hrs by Celltiter aqueous assay; type: toxicity, cell-based; conditions: read-out: TC50
[6] = target: cGMP-dependent 3',5'-cyclic phosphodiesterase (Homo sapiens) (UniProt O00408); assay: Inhibition of human PDE2A1 at 10 uM by Eurofins kinase assay relative to control
Sequence of cGMP-dependent 3',5'-cyclic phosphodiesterase (Homo sapiens) (O00408 whole entry): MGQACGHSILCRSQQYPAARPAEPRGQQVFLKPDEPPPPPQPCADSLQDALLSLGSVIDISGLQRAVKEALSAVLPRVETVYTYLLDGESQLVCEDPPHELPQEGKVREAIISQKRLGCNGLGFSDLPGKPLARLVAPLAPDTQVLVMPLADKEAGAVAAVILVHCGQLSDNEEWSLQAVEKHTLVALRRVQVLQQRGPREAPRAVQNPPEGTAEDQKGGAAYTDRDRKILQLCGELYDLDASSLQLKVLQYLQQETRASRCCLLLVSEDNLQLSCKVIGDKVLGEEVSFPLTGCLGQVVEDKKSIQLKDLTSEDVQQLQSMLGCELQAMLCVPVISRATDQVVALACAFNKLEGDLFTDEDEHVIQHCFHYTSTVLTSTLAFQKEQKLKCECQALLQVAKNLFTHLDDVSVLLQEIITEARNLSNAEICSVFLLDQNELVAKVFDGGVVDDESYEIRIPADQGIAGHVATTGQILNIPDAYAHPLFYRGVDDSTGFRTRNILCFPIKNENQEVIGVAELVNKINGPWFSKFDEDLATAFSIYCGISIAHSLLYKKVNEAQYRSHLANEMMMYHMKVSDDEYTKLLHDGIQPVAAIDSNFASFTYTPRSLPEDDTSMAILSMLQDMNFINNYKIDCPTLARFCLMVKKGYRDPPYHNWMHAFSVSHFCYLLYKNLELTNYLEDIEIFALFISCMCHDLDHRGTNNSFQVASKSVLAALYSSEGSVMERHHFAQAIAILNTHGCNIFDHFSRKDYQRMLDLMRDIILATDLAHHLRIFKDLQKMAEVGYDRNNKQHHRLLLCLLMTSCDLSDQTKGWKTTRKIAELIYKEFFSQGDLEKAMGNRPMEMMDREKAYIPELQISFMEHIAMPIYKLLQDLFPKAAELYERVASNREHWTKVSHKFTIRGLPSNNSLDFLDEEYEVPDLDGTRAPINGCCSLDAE

[7] = target: Dual 3',5'-cyclic-AMP and -GMP phosphodiesterase 11A (Homo sapiens) (UniProt Q9HCR9); assay: Inhibition of human PDE11A at 10 uM by Eurofins kinase assay relative to control
[8] = target: cGMP-specific 3',5'-cyclic phosphodiesterase (Homo sapiens) (UniProt O76074); assay: Inhibition of human PDE5 at 10 uM by Eurofins kinase assay relative to control
[9] = target: Voltage-gated inwardly rectifying potassium channel KCNH2 (Homo sapiens, UniProt Q12809); assay: Inhibition of human ERG by Eurofins kinase assay; type: toxicity
Cytochrome P450 2C8 = Cytochrome P450 2C8 (Homo sapiens, UniProt P10632); assay: Inhibition of recombinant human CYP2C8 by Eurofins assay; type: ADME
Homo sapiens [10] = species: Homo sapiens; assay: Inhibition of human PDE1B at 10 uM by Eurofins kinase assay relative to control
[11] = target: cGMP-inhibited 3',5'-cyclic phosphodiesterase 3B (Homo sapiens) (UniProt Q13370); assay: Inhibition of human PDE3B at 10 uM by Eurofins kinase assay relative to control
Homo sapiens [12] = species: Homo sapiens; assay: Inhibition of human PDE4A1A at 10 uM by Eurofins kinase assay relative to control
Cryptosporidium parvum = assay: Antiparasitic activity against Cryptosporidium parvum Iowa oocyst infected in NOD SCID gamma mouse model assessed as reduction in parasite fecal shedding at 50 mg/kg, po administered twice daily for 7 days starting from day 7 post infection and measured on day 21 by qPCR analysis; type: functional, organism-based; conditions: time 14.0 day
[13] = Aqueous solubility of compound at pH 7.4; type: physicochemical
Homo sapiens [14] = species: Homo sapiens; assay: Inhibition of human PDE6 at 10 uM by Eurofins kinase assay relative to control
HCT-8 = assay: Cytotoxicity against human HCT-8 cells assessed as reduction in cell numbers upto 50 uM incubated for 48 hrs by high-density microscopic celltiter aqueous assay; type: toxicity, cell-based; conditions: hct-8, 48 h
[15] = target: cAMP and cAMP-inhibited cGMP 3',5'-cyclic phosphodiesterase 10A (Homo sapiens) (UniProt Q9Y233); assay: Inhibition of human PDE10A2 at 10 uM by Eurofins kinase assay relative to control
Sequence of cAMP and cAMP-inhibited cGMP 3',5'-cyclic phosphodiesterase 10A (Homo sapiens) (Q9Y233 whole entry): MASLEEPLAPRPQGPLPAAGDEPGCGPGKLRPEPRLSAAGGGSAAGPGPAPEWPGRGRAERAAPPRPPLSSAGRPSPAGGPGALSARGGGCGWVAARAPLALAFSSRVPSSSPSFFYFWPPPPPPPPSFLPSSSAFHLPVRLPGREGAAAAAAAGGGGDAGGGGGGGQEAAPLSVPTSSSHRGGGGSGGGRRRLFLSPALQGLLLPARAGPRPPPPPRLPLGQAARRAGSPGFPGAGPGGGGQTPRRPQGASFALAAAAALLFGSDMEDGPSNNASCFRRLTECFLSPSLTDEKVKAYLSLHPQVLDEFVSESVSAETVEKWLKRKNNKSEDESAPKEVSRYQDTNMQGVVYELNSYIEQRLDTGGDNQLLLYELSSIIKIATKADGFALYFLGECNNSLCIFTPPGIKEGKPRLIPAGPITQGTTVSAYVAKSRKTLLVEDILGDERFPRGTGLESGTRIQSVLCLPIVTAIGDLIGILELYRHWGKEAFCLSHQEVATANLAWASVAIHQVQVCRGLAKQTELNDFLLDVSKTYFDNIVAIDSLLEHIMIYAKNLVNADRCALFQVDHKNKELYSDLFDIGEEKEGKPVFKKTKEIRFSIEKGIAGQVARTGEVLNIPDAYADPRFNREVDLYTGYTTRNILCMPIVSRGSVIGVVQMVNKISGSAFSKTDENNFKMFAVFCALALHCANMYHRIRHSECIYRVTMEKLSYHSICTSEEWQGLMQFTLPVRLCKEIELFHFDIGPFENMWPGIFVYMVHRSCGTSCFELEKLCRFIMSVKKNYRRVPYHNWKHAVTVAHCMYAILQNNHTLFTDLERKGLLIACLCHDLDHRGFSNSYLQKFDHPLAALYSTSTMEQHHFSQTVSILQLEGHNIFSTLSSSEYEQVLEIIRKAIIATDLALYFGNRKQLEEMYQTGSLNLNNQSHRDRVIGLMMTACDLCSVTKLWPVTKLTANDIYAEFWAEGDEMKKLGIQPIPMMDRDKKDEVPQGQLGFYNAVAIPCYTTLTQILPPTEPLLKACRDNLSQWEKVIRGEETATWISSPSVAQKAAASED

PDE4B1 = PDE4B1 (Homo sapiens, UniProt Q07343); assay: Inhibition of recombinant human PDE4B1 extracted from Sf9 cells using [3H]cAMP as substrate at 10 uM by Eurofins kinase assay relative to control; type: toxicity, cell-free; conditions: probe [3H]cAMP
[16] = target: T1, 3',5'-cyclic-AMP phosphodiesterase 4D; assay: Inhibition of human PDE4D2 at 10 uM by Eurofins kinase assay relative to control
[17] = target: cGMP-inhibited 3',5'-cyclic phosphodiesterase 3A (Homo sapiens) (UniProt Q14432); assay: Inhibition of human PDE3A at 10 uM by Eurofins kinase assay relative to control
PDE11A = PDE11A (Homo sapiens, UniProt Q9HCR9); assay: Inhibition of recombinant human PDE11A extracted from Sf9 cells using [3H]cAMP as substrate at 10 uM by Eurofins kinase assay relative to control; type: toxicity, cell-free; conditions: probe [3H]cAMP
PDE6 = assay: Inhibition of bovine retina PDE6 using [3H]cGMP as substrate at 10 uM by Eurofins kinase assay relative to control; type: toxicity, Bos taurus; conditions: cattle, bovine retina PDE6, probe [3H]cGMP
Cytochrome P450 2C19 = Cytochrome P450 2C19 (Homo sapiens, UniProt P33261); assay: Inhibition of recombinant human CYP2C19 by Eurofins assay; type: ADME
Sequence of Cytochrome P450 2C19 (P33261 whole entry): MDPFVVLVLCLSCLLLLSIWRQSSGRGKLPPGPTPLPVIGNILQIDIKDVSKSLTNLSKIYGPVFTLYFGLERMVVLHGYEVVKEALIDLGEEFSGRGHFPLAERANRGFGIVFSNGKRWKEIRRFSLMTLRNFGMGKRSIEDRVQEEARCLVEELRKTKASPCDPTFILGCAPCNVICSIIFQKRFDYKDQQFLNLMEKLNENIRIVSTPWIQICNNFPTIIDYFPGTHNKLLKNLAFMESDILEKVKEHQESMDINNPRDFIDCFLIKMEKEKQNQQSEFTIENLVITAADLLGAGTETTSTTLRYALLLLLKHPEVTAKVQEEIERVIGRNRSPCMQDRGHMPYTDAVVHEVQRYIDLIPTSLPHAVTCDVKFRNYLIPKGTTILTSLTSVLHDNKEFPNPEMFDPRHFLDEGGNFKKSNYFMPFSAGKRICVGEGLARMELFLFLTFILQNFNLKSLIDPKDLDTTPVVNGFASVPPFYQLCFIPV

Sequence of Cytochrome P450 1A2 (P05177 whole entry): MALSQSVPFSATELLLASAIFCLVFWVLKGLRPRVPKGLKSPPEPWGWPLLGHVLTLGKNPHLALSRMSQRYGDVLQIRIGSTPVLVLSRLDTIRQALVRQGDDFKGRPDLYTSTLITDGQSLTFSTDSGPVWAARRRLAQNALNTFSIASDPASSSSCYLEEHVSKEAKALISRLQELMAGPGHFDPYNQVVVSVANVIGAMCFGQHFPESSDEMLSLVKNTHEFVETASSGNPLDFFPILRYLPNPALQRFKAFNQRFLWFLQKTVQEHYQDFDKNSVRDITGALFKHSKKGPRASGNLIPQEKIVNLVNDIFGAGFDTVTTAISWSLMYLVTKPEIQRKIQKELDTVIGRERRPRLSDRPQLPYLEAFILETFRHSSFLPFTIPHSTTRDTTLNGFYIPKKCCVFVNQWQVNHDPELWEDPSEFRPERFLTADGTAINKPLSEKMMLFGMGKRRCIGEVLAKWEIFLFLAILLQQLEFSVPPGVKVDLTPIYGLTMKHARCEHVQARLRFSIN

Which inhibition at 10 µM (PDE5) does the source give for CCc1nn(C)c2nc(-c3ccc(C(=O)O)cc3)nc(NCc3ccc(F)cc3)c12 here?
The inhibition at 10 µM was over 50%.

And the IC50 (Cytochrome P450 1A2)?
Its IC50 is over 10 µM.

What about the IC50 (Cytochrome P450 2D6) of the same molecule?
The IC50 was over 10 µM.

What about the inhibition [1] of the same molecule?
The inhibition was 54%.

What about the IC50 [2] of the same molecule?
The IC50 was 8.2 µM.

And the inhibition [3]?
The inhibition was 22%.

And the inhibition [4]?
The inhibition was 30%.

What about the IC50 (Cytochrome P450 3A4) of the same molecule?
The IC50 was over 10 µM.

And the IC50 (Cytochrome P450 2B6)?
The IC50 was over 10 µM.

And the CC50 at 48 h [5]?
Its CC50 at 48 h is over 100 µM.

And the inhibition [6]?
The inhibition was 36%.

What about the inhibition [7] of the same molecule?
The inhibition was 55%.

What about the inhibition [8] of the same molecule?
Its inhibition is 93%.

And the IC50 [9]?
Its IC50 is over 10 µM.

What about the IC50 (Cytochrome P450 2C8) of the same molecule?
The IC50 was over 10 µM.

What about the inhibition (Homo sapiens [10]) of the same molecule?
The inhibition was 18%.

What about the inhibition [11] of the same molecule?
The inhibition was 2%.

What about the inhibition (Homo sapiens [12]) of the same molecule?
Its inhibition is 31%.

And the Activity (Cryptosporidium parvum)?
Its Activity is “Active”.

What about the solubility [13] of the same molecule?
The solubility was over 200 µM.

And the inhibition (Homo sapiens [14])?
The inhibition was 79%.

And the Activity (HCT-8)?
The Activity was “Non-toxic”.

What about the inhibition [15] of the same molecule?
The inhibition was 37%.

And the inhibition at 10 µM (PDE4B1)?
Its inhibition at 10 µM is over 50%.

And the inhibition [16]?
Its inhibition is 42%.

And the inhibition [17]?
The inhibition was 27%.

And the inhibition at 10 µM (PDE11A)?
Its inhibition at 10 µM is over 50%.

And the inhibition at 10 µM (PDE6)?
Its inhibition at 10 µM is over 50%.

What about the IC50 (Cytochrome P450 2C19) of the same molecule?
Its IC50 is over 10 µM.

Source: ChEMBL document CHEMBL6087459 (J Med Chem, 2025)
